Laboratory results from PubChem BioAssay AID256 (DTP/NCI, 2004).
“And” between values parts separate entries of the source, which are not always exact repeats. Equal entries are not always repeated. Toxic doses and inconclusive results are not listed.

System: CD2F1 mice, L1210 leukemia ip, survival T/C
Assay: NCI In Vivo Anticancer Drug Screen. Data for tumor model L1210 Leukemia (intraperitoneal) in CD2F1 (CDF1) mice
Conditions: higher = longer survival
Procedure, shortened: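 Compound-dosed mice with transplantable tumor versus matched vehicle controls; endpoint ratio T/C reported.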

[1] = endpoint: mean survival time, dose: 100.0 mg/kg/injection, schedule: Q04DX002 (ip), vehicle: saline with Tween-80
[2] = endpoint: mean survival time, dose: 200.0 mg/kg/injection, schedule: Q04DX002 (ip), vehicle: saline with Tween-80
[3] = endpoint: mean survival time, dose: 400.0 mg/kg/injection, schedule: Q04DX002 (ip), vehicle: saline with Tween-80
[4] = endpoint: mean survival time, dose: 100.0 mg/kg/injection, schedule: Q04DX003 (ip), vehicle: saline with Tween-80
[5] = endpoint: mean survival time, dose: 200.0 mg/kg/injection, schedule: Q04DX003 (ip), vehicle: saline with Tween-80
[6] = endpoint: mean survival time, dose: 400.0 mg/kg/injection, schedule: Q04DX003 (ip), vehicle: saline with Tween-80
[7] = endpoint: mean survival time, dose: 25.0 mg/kg/injection, schedule: Q01DX009 (ip), vehicle: Klucel (hydroxypropylcellulose) (HPC)
[8] = endpoint: mean survival time, dose: 50.0 mg/kg/injection, schedule: Q01DX009 (ip), vehicle: Klucel (hydroxypropylcellulose) (HPC)
[9] = endpoint: mean survival time, dose: 400.0 mg/kg/injection, schedule: Q01DX009 (ip), vehicle: saline sonified
[10] = endpoint: mean survival time, dose: 400.0 mg/kg/injection, schedule: Q01DX009 (ip), vehicle: saline with Tween-80

O=C(O)C1CCc2c(cnn2-c2ccccc2)C1 (configuration not stated)
T/C [1]: 88 % of control
T/C [2]: 100 % of control
T/C [3]: 92 % of control

Nc1nc(N)c2cc(CNc3ccc(C(=O)NC(C(=O)O)C(=O)O)cc3)ccc2n1
T/C (endpoint: mean survival time, dose: 0.8 mg/kg/injection, schedule: Q01DX009 (ip), vehicle: saline): 102 % of control
T/C (endpoint: mean survival time, dose: 1.6 mg/kg/injection, schedule: Q01DX009 (ip), vehicle: saline): 86 % of control

Cc1ncc(CNC(=O)N(CCCl)N=O)c(N)n1
T/C (endpoint: mean survival time, dose: 3.12 mg/kg/injection, schedule: Q01DX009 (ip), vehicle: saline): 159 % of control
T/C (endpoint: mean survival time, dose: 3.13 mg/kg/injection, schedule: Q01DX009 (ip), vehicle: saline with Tween-80): 180 % of control
T/C (endpoint: mean survival time, dose: 6.25 mg/kg/injection, schedule: Q01DX009 (ip), vehicle: saline with Tween-80): 195 % of control
T/C (endpoint: mean survival time, dose: 6.25 mg/kg/injection, schedule: Q01DX009 (ip), vehicle: saline): 236 % of control
T/C (endpoint: mean survival time, dose: 12.5 mg/kg/injection, schedule: Q01DX009 (ip), vehicle: saline with Tween-80): 357 % of control
T/C (endpoint: mean survival time, dose: 12.5 mg/kg/injection, schedule: Q01DX009 (ip), vehicle: saline): 288 % of control
T/C (endpoint: mean survival time, dose: 17.5 mg/kg/injection, schedule: Q04DX002 (ip), vehicle: saline): 337 % of control
T/C (endpoint: mean survival time, dose: 25.0 mg/kg/injection, schedule: Q01DX009 (ip), vehicle: saline with Tween-80): 220 % of control
T/C (endpoint: mean survival time, dose: 35.0 mg/kg/injection, schedule: Q04DX002 (ip), vehicle: saline): 316 % of control

OCC1OC(n2cnc3c2NC=NCC3O)C(Cl)C1O (configuration not stated)
T/C (endpoint: median survival time, dose: 5.0 mg/kg/injection, schedule: Q01DX005 (ip), vehicle: other): 101 % of control
T/C (endpoint: median survival time, dose: 10.0 mg/kg/injection, schedule: Q01DX005 (ip), vehicle: other): 103 % of control
T/C (endpoint: median survival time, dose: 20.0 mg/kg/injection, schedule: Q01DX005 (ip), vehicle: other): 96 % of control
T/C (endpoint: median survival time, dose: 30.0 mg/kg/injection, schedule: Q01DX005 (ip), vehicle: other): 118 % of control
T/C (endpoint: median survival time, dose: 40.0 mg/kg/injection, schedule: Q01DX005 (ip), vehicle: other): 106 % of control
T/C (endpoint: median survival time, dose: 60.0 mg/kg/injection, schedule: Q01DX005 (ip), vehicle: other): 107 % of control
T/C (endpoint: median survival time, dose: 120.0 mg/kg/injection, schedule: Q01DX005 (ip), vehicle: other): 100 % of control

COc1cc(OC)c(/C=C/c2cc[n+](C)c3ccccc23)c(OC)c1
T/C (endpoint: mean survival time, dose: 1.56 mg/kg/injection, schedule: Q01DX009 (ip), vehicle: saline): 106 % of control
T/C (endpoint: mean survival time, dose: 1.56 mg/kg/injection, schedule: Q04DX002 (ip), vehicle: saline): 100 % of control
T/C (endpoint: mean survival time, dose: 3.13 mg/kg/injection, schedule: Q01DX009 (ip), vehicle: saline): 109 % of control
T/C (endpoint: mean survival time, dose: 3.13 mg/kg/injection, schedule: Q04DX002 (ip), vehicle: saline): 98 % of control
T/C (endpoint: mean survival time, dose: 6.25 mg/kg/injection, schedule: Q04DX002 (ip), vehicle: saline): 88 % of control and 91 % of control

BrC1=C(c2ccccc2)C2CCCCC2C1(Br)c1ccccc1 (configuration not stated)
T/C (endpoint: mean survival time, dose: 100.0 mg/kg/injection, schedule: Q01DX001 (ip), vehicle: Klucel (hydroxypropylcellulose) (HPC)): 98 % of control
T/C (endpoint: mean survival time, dose: 200.0 mg/kg/injection, schedule: Q01DX001 (ip), vehicle: Klucel (hydroxypropylcellulose) (HPC)): 102 % of control
T/C (endpoint: mean survival time, dose: 400.0 mg/kg/injection, schedule: Q01DX001 (ip), vehicle: Klucel (hydroxypropylcellulose) (HPC)): 102 % of control

Nc1nc(N)c2c(n1)NCN(CCc1ccccc1Cl)C2
T/C (endpoint: mean survival time, dose: 0.75 mg/kg/injection, schedule: Q01DX009 (ip), vehicle: distilled water + Tween-80): 93 % of control
T/C (endpoint: mean survival time, dose: 1.5 mg/kg/injection, schedule: Q01DX009 (ip), vehicle: distilled water + Tween-80): 98 % of control
T/C (endpoint: mean survival time, dose: 3.0 mg/kg/injection, schedule: Q01DX009 (ip), vehicle: distilled water + Tween-80): 94 % of control
T/C (endpoint: mean survival time, dose: 6.0 mg/kg/injection, schedule: Q01DX009 (ip), vehicle: distilled water + Tween-80): 100 % of control
T/C (endpoint: mean survival time, dose: 12.0 mg/kg/injection, schedule: Q01DX009 (ip), vehicle: distilled water + Tween-80): 94 % of control
T/C (endpoint: mean survival time, dose: 24.0 mg/kg/injection, schedule: Q01DX009 (ip), vehicle: distilled water + Tween-80): 102 % of control
T/C (endpoint: mean survival time, dose: 48.0 mg/kg/injection, schedule: Q01DX009 (ip), vehicle: distilled water + Tween-80): 96 % of control
T/C (endpoint: mean survival time, dose: 80.0 mg/kg/injection, schedule: Q01DX009 (ip), vehicle: distilled water + Tween-80): 96 % of control

CCC(C)CC(O)CC1=CCCCC1 (configuration not stated)
T/C [4]: 91 % of control
T/C [5]: 95 % of control
T/C [6]: 106 % of control

C1c2nnnn2Cc2nnnn21
T/C (endpoint: mean survival time, dose: 12.5 mg/kg/injection, schedule: Q04DX002 (ip), vehicle: saline): 96 % of control
T/C (endpoint: mean survival time, dose: 25.0 mg/kg/injection, schedule: Q04DX002 (ip), vehicle: saline): 104 % of control
T/C (endpoint: mean survival time, dose: 50.0 mg/kg/injection, schedule: Q04DX002 (ip), vehicle: saline): 93 % of control

O=[N+]([O-])c1cc(S(=O)(=O)O)cc([N+](=O)[O-])c1Cl
T/C (endpoint: mean survival time, dose: 25.0 mg/kg/injection, schedule: Q01DX009 (ip), vehicle: saline): 103 % of control
T/C (endpoint: mean survival time, dose: 50.0 mg/kg/injection, schedule: Q01DX009 (ip), vehicle: saline): 96 % of control
T/C (endpoint: mean survival time, dose: 100.0 mg/kg/injection, schedule: Q01DX009 (ip), vehicle: saline): 98 % of control and 103 % of control

C=CCc1cc(CNCC(O)c2ccccc2)c(O)c(OC)c1 (configuration not stated)
T/C [7]: 89 % of control
T/C [8]: 112 % of control

Nc1ccc(OCc2ccc(C(=O)Nc3cccc(S(=O)(=O)F)c3)cc2)c(Cl)c1
T/C (endpoint: mean survival time, dose: 100.0 mg/kg/injection, schedule: Q01DX009 (ip), vehicle: saline sonified): 91 % of control
T/C (endpoint: mean survival time, dose: 200.0 mg/kg/injection, schedule: Q01DX009 (ip), vehicle: saline sonified): 95 % of control
T/C [9]: 93 % of control

Nc1ncnc2c1nc(Br)n2C1OC(CO)C(O)C1O (configuration not stated)
T/C [1]: 95 % of control
T/C [2]: 98 % of control
T/C [3]: 98 % of control

CCSC(C)CC(=O)O (configuration not stated)
T/C (endpoint: mean survival time, dose: 100.0 mg/kg/injection, schedule: Q01DX001 (ip), vehicle: saline): 103 % of control
T/C (endpoint: mean survival time, dose: 200.0 mg/kg/injection, schedule: Q01DX001 (ip), vehicle: saline): 103 % of control

CCOC(=O)c1[nH]cnc1/N=N/N(C)CCO
T/C [4]: 106 % of control
T/C [5]: 111 % of control
T/C (endpoint: mean survival time, dose: 264.0 mg/kg/injection, schedule: Q01DX009 (ip), vehicle: saline sonified): 160 % of control
T/C [9]: 162 % of control
T/C [10]: 150 % of control
T/C [6]: 109 % of control
T/C (endpoint: mean survival time, dose: 600.0 mg/kg/injection, schedule: Q01DX009 (ip), vehicle: saline sonified): 165 % of control

COc1ccc2[nH]c3c(c2c1)CCNC3CC(C)CCC=C(C)C (configuration not stated)
T/C (endpoint: mean survival time, dose: 6.25 mg/kg/injection, schedule: Q01DX009 (ip), vehicle: Klucel (hydroxypropylcellulose) (HPC)): 100 % of control and 110 % of control
T/C (endpoint: mean survival time, dose: 12.5 mg/kg/injection, schedule: Q01DX009 (ip), vehicle: Klucel (hydroxypropylcellulose) (HPC)): 98 % of control and 102 % of control
T/C [7]: 97 % of control and 101 % of control
T/C [8]: 100 % of control and 103 % of control
T/C (endpoint: mean survival time, dose: 100.0 mg/kg/injection, schedule: Q01DX009 (ip), vehicle: Klucel (hydroxypropylcellulose) (HPC)): 86 % of control and 100 % of control
T/C (endpoint: mean survival time, dose: 200.0 mg/kg/injection, schedule: Q01DX009 (ip), vehicle: Klucel (hydroxypropylcellulose) (HPC)): 108 % of control

Cc1ccc(S(=O)(=O)N=P(c2ccccc2)(c2ccccc2)c2ccccc2)cc1
T/C (endpoint: mean survival time, dose: 100.0 mg/kg/injection, schedule: Q01DX009 (ip), vehicle: saline with Tween-80): 93 % of control and 94 % of control
T/C (endpoint: mean survival time, dose: 200.0 mg/kg/injection, schedule: Q01DX009 (ip), vehicle: saline with Tween-80): 88 % of control
T/C [10]: 91 % of control and 93 % of control

CC/C(=C(/CC)c1ccc(OP(=O)(Cl)N(CCCl)CCCl)cc1)c1ccc(OP(=O)(Cl)N(CCCl)CCCl)cc1 (configuration not stated)
T/C (endpoint: median survival time, dose: 31.25 mg/kg/injection, schedule: Q01DX001 (ip), vehicle: distilled water + Tween-80): 108 % of control
T/C (endpoint: median survival time, dose: 62.5 mg/kg/injection, schedule: Q01DX001 (ip), vehicle: distilled water + Tween-80): 101 % of control
T/C (endpoint: median survival time, dose: 125.0 mg/kg/injection, schedule: Q01DX001 (ip), vehicle: distilled water + Tween-80): 97 % of control
T/C (endpoint: median survival time, dose: 250.0 mg/kg/injection, schedule: Q01DX001 (ip), vehicle: distilled water + Tween-80): 100 % of control
T/C (endpoint: median survival time, dose: 500.0 mg/kg/injection, schedule: Q01DX001 (ip), vehicle: distilled water + Tween-80): 100 % of control
